{"source": "patent EP4722213A1", "about": "“NITROGEN-CONTAINING FUNCTIONAL GROUP-SUBSTITUTED PYRIDAZINOPYRIDONE DERIVATIVE AND USE THEREOF” (Sichuan Huiyu Pharmaceutical Co., Ltd., priority 2023, dated 2024)", "note": "Counter-ions that a name gives are not always drawn."}
{"molecular_target": "T1, SOS1 (Homo sapiens, UniProt Q07889)", "T1 sequence (Q07889 1-1333)": "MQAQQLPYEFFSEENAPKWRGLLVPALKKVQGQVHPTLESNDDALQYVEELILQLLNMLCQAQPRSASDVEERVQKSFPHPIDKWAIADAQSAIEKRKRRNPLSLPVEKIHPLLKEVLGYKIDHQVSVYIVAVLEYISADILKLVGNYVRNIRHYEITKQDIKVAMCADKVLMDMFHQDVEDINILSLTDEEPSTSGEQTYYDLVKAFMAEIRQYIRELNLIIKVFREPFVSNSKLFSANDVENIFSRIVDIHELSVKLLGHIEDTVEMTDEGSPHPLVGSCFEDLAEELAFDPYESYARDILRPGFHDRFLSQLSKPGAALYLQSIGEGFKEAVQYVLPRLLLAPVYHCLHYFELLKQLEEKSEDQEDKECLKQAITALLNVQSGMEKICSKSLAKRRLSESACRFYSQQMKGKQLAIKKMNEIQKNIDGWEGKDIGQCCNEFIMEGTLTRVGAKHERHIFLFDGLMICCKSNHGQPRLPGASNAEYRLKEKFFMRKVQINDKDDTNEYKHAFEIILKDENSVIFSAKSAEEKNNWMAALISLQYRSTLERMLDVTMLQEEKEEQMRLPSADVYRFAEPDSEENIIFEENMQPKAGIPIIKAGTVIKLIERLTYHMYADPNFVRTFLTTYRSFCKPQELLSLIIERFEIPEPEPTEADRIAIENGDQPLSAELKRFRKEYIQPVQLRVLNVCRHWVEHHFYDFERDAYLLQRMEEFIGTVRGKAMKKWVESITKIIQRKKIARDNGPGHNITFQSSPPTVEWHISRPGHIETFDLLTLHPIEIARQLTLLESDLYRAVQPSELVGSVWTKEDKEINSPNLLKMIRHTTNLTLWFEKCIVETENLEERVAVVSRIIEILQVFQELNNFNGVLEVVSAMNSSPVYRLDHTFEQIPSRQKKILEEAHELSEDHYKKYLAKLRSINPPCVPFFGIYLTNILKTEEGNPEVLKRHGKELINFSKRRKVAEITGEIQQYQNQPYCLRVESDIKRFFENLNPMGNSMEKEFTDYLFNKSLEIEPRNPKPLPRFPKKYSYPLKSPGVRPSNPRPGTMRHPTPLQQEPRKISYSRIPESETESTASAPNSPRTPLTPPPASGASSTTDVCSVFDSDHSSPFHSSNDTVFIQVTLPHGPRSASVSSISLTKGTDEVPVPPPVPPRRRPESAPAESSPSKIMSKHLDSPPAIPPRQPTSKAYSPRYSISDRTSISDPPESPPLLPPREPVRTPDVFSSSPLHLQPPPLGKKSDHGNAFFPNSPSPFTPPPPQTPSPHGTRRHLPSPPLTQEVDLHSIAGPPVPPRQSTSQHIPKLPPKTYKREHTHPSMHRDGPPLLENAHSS", "experiment": "biochemical", "units": {"IC50": "nM"}}
{"molecule": "C[C@@H](Nc1nnc(-n2cccn2)c2cc(=O)n(C3(C)CC3)cc12)c1cccc(C(F)F)c1F", "note": "[Example 33, (R)-4-((1-(3-(difluoromethyl)-2-fluorophenyl)ethyl)amino)-6-(1-methylcyclopropyl)-1-(1H-pyrazol-1-yl)pyrido[3,4-d]pyridazin-7(6H)-one]", "IC50": 22.5}
{"molecule": "C[C@@H](Nc1nnc(N2CC3CC2CO3)c2cc(=O)n(C3(C)CC3)cc12)c1cccc(C(F)F)c1F", "note": "(stereo partly drawn) [Example 201, 1-(2-oxa-5-azabicyclo[2.2.1]heptan-5-yl)-4-(((R)-1-(3-(difluoromethyl)-2-fluorophenyl)ethyl)amino)-6-(1-methylcyclopropyl) pyrido[3,4-d]pyridazin-7(6H)-one]", "IC50": 5.3}
{"molecule": "CC(C)N1CCN(c2nnc(N[C@H](C)c3cccc(C(F)(F)F)c3)c3cn(C4(C)CC4)c(=O)cc23)CC1", "note": "[Example 155, (R)-1-(4-isopropylpiperazin-1-yl)-6-(1-methylcyclopropyl)-4-((1-(3-(trifluoromethyl)phenyl)ethyl)amino)pyr ido[3,4-d]pyridazin-7(6H)-one formate]", "IC50": 5.6}
{"molecule": "CC(=O)N1CCN(c2nnc(N[C@H](C)c3cccc(C(F)F)c3F)c3cn(C4(C)CC4)c(=O)cc23)CC1", "note": "[Example 79, (R)-1-(4-acetylpiperazin-1-yl)-4-((1-(3-(difluoromethyl)-2-fluorophenyl)ethyl)amino)-6-(1-methylcyclopropyl)pyrido[3,4-d]pyridazin-7(6H)-one]", "IC50": 12.7}
{"molecule": "CCn1cc2c(N[C@H](C)c3cccc(C(F)F)c3F)nnc(N3CCN(C)CC3)c2cc1=O", "note": "[Example 116, (R)-4-((1-(3-(difluoromethyl)-2-fluorophenyl)ethyl)amino)-6-ethyl-1-(4-methylpiperazin-1-yl)pyrido[3,4-d]pyridazin-7(6H)-one]", "IC50": 6.6}
{"molecule": "C[C@@H](Nc1nnc(N2CCC(CO)C2)c2cc(=O)n(C3(C)CC3)cc12)c1cccc(C(F)F)c1F", "note": "(stereo partly drawn) [Example 128, 4-(((R)-1-(3-(difluoromethyl)-2-fluorophenyl)ethyl)amino)-1-(3-(hydroxymethyl)pyrrolidin-1-yl)-6-(1-methylcyclopropyl) pyrido[3,4-d]pyridazin-7(6H)-one]", "IC50": 4.2}
{"molecule": "CCN1CCN(c2nnc(N[C@H](C)c3cccc(C#N)c3C)c3cn(N4CC5CCCC5C4)c(=O)cc23)CC1", "note": "(stereo partly drawn) [Example 153, 3-((1R)-1-((6-(hexahydrocyclopenta[c]pyrrol-2(1H)-yl)-1-(4-ethylpiperazin-1-yl)-7-oxo-6,7-dihydropyrido[3,4-d]pyridazin-4-yl)amino)ethyl)-2-methylbenzonitrile]", "IC50": 4.6}
{"molecule": "C[C@@H](Nc1nnc(N2CCC3(CCCO3)CC2)c2cc(=O)n(C3(C)CC3)cc12)c1cccc(C(F)F)c1F", "note": "[Example 199, (R)-4-((1-(3-(difluoromethyl)-2-fluorophenyl)ethyl)amino)-6-(1-methylcyclopropyl)-1-(1-oxa-8-azaspiro[4.5]decan-8-yl)pyrido[3,4-d]pyridazin-7(6H)-one]", "IC50": 12.5}
{"molecule": "C[C@@H](Nc1nnc(N2CCN(C3CC3)CC2)c2cc(=O)n(C3(C)CC3)cc12)c1cccc(C(F)(F)F)c1", "note": "[Example 181, (R)-1-(4-cyclopropylpiperazin-1-yl)-6-(1-methylcyclopropyl)-4-((1-(3-(trifluoromethyl)phenyl)ethyl)amino)pyr ido[3,4-d]pyridazin-7(6H)-one formate]", "IC50": 7.8}
{"molecule": "Cc1c(C(F)F)cccc1[C@@H](C)Nc1nnc(N2CCN(C)CC2)c2cc(=O)n(C3(C)CC3)cc12", "note": "[Example 213, (R)-4-((1-(3-(difluoromethyl)-2-methylphenyl)ethyl)amino)-6-(1-methylcyclopropyl)-1-(4-methylpiperazin-1-yl)pyrido[3,4-d]pyridazin-7(6H)-one formate]", "IC50": 6.2}
{"molecule": "Cc1c(C#N)cccc1[C@@H](C)Nc1nnc(N2CCS(=O)(=O)CC2)c2cc(=O)n(C3(C)CC3)cc12", "note": "[Example 72, (R)-3-(1-((1-(1,1-dioxidothiomorpholino)-6-(1-methylcyclopropyl)-7-oxo-6,7-dihydropyrido[3,4-d]pyridazin-4-yl)amino)ethyl)-2-methylbenzonitrile]", "IC50": 50.4}
